Measured values taken from ChEMBL document CHEMBL1201862, “PubChem BioAssay data set” (2004).
Activity calls are given as the source filed them.

Experiments:
Genome polyprotein = Genome polyprotein (dengue virus type 2, UniProt P29990); assay: flavivirus cap methylation enzyme inhibition – biochemical, confirmation dose response, primary screen (AID 588689); assay type: functional
Hexokinase HKDC1 = target: T1, Hexokinase HKDC1 (Homo sapiens, UniProt Q2TB90); assay: inhibition of HKDC1 glucose phosphorylation – biochemical, W721R variant, dose response (AID 504729); assay type: functional
T1 sequence (Q2TB90 whole entry): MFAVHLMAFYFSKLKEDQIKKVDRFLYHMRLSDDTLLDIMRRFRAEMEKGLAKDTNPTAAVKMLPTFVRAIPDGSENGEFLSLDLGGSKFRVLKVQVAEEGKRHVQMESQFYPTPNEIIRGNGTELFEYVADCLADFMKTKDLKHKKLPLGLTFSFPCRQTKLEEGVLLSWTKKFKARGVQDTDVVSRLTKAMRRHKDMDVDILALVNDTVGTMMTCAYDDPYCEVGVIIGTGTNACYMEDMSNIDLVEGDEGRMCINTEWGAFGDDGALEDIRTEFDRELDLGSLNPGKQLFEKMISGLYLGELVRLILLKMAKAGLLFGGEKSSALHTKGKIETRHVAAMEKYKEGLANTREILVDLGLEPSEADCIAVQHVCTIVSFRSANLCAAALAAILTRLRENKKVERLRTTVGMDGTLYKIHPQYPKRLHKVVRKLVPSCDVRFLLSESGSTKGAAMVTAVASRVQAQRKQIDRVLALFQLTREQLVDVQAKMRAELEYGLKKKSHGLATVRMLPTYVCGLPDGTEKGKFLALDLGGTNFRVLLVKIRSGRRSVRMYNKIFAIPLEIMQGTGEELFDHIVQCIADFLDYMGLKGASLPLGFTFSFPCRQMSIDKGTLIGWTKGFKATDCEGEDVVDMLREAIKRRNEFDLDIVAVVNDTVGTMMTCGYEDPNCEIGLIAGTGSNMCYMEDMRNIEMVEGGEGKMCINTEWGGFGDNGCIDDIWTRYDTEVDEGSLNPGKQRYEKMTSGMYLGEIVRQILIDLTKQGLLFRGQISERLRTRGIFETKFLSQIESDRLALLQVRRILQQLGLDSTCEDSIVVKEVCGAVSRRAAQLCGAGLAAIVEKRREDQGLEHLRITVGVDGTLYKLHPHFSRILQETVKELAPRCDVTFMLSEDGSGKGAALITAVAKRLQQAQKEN

[1] = target: Tyrosyl-DNA phosphodiesterase 2 (Homo sapiens, UniProt O95551); assay: potency against TDP2 phosphodiesterase activity – biochemical, epi absorbance, IC50, dose response (AID 743297)
cells = conditions: A549
BHK-21 = assay: viability loss in BHK-21 cells – cell-based, plate reader, cherry-pick samples, cytotoxicity control, dose response (AID 687030); assay type: functional; conditions: Mesocricetus auratus
Vero [2] = assay: cells; assay type: functional; conditions: Chlorocebus sabaeus
A549 = assay: viability loss in A549 cells – cell-based, plate reader, cherry-pick samples, cytotoxicity control, dose response (AID 687028); assay type: functional; conditions: Homo sapiens
Vero [3] = assay: viability loss in Vero cells – cell-based, plate reader, cherry-pick samples, cytotoxicity control, dose response (AID 687020); assay type: functional; conditions: Chlorocebus sabaeus
[4] = target: Endoplasmic reticulum aminopeptidase 1 (Homo sapiens, UniProt Q9NZ08); assay: inhibition of human ERAP1 enzyme activity – biochemical, cherry-pick, set 2, plate reader, dose response (AID 743314)
CAAX prenyl protease 2 = target: T2, CAAX prenyl protease 2 (Saccharomyces cerevisiae S288c, UniProt Q03530); assay type: biochemical
T2 sequence (Q03530 whole entry): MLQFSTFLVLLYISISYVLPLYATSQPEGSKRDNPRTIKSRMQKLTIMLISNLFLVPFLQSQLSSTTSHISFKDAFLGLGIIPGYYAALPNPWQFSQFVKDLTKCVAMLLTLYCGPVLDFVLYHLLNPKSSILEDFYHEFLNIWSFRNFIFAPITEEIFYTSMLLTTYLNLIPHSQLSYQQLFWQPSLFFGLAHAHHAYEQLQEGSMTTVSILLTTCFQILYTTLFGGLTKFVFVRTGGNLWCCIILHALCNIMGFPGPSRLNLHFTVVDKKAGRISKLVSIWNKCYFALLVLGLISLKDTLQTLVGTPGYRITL

[5] = viability loss in HepG2 hepatoma cells – cell-based, ATP luminescence, cherry-pick, activator set 2, cytotoxicity control, dose response (AID 1053143); assay type: functional
[6] = target: T3, Polyadenylate-binding protein 1 (Homo sapiens, UniProt P11940); assay: MLLE binding blockers, Cy5 peptide tracer – biochemical, fluorescence polarization, Cy5-PAM2 peptide, secondary, miRNA deadenylation inhibitor project, dose response (AID 602260); assay type: functional; conditions: read-out: IC50_Mean
[7] = target: T3, Polyadenylate-binding protein 1; assay: MLLE domain peptide-binding blockers, IC50 – biochemical, fluorescence polarization, FITC-PAM2 peptide, dose response (AID 602259); assay type: functional; conditions: read-out: IC50_Mean
[8] = target: Botulinum neurotoxin type F (Clostridium botulinum, UniProt P30996); assay: High-throughput multiplex microsphere dose response for inhibitors of toxin protease, specifically Botulinum neurotoxin light chain F protease, compounds from Cherry Pick 02.; assay type: functional; conditions: read-out: EC50_MICROM
Protein skinhead-1 = target: T4, Protein skinhead-1 (Caenorhabditis elegans, UniProt P34707); assay type: functional
T4 sequence (P34707 whole entry): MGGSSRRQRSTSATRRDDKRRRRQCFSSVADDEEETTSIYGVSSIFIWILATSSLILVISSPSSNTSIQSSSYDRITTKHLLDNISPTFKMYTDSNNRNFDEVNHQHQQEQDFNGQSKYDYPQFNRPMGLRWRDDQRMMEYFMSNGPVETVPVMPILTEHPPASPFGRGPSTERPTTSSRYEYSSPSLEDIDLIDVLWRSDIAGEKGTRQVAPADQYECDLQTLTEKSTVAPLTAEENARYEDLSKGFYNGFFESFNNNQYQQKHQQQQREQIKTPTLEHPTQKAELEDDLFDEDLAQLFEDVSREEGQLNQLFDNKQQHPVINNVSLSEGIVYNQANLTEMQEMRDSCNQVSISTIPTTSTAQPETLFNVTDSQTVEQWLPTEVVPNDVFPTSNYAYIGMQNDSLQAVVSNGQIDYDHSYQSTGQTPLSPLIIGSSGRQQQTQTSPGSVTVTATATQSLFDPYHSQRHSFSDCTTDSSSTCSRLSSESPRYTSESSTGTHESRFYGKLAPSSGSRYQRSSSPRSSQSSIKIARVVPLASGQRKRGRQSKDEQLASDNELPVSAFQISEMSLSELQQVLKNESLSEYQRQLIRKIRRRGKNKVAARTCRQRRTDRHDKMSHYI

[9] = viability loss in LCL cells – cell-based, plate reader, dry powder, set 2, cytotoxicity control, dose response (AID 624367); assay type: functional
[10] = Dd2 parasite growth inhibition in erythrocytes – SYBR Green, dry powder samples, set 9, dose response (AID 1159568); assay type: functional, cell-based
[11] = cytotoxicity in HEK293 background cells – cell-based, dry powder, set 2, counter-screen for EBV LMP1 inhibitor project, dose response (AID 624374); assay type: functional

T3 sequence (P11940 whole entry, the tested form may be a part): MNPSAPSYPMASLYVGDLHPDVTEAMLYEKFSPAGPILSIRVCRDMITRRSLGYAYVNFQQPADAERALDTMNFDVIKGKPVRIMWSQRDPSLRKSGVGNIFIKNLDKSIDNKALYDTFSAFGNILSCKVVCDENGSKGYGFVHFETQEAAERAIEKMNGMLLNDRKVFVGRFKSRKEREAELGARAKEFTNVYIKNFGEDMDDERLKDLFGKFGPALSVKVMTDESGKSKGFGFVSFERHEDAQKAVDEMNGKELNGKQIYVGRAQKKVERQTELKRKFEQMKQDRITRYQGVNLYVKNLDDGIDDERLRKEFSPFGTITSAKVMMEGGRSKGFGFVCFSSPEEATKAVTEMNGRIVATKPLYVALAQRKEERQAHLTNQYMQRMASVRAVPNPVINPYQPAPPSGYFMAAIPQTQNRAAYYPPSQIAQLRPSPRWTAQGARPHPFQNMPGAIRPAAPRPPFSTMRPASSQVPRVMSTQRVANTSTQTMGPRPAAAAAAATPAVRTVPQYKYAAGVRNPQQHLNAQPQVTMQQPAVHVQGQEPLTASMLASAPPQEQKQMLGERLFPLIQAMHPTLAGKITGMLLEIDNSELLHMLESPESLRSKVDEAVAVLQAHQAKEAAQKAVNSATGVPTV
Tyrosyl-DNA phosphodiesterase 2, sequence (O95551 whole entry): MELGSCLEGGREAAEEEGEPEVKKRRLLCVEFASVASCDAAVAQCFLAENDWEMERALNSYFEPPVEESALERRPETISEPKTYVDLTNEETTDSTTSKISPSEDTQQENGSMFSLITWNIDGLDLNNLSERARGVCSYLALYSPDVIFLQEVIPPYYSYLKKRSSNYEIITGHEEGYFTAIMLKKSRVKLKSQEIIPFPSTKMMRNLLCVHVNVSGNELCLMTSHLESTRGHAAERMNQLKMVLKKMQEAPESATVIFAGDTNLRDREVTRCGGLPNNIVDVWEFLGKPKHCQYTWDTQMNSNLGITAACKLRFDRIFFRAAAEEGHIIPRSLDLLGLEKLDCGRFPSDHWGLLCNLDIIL
Endoplasmic reticulum aminopeptidase 1, sequence (Q9NZ08 whole entry): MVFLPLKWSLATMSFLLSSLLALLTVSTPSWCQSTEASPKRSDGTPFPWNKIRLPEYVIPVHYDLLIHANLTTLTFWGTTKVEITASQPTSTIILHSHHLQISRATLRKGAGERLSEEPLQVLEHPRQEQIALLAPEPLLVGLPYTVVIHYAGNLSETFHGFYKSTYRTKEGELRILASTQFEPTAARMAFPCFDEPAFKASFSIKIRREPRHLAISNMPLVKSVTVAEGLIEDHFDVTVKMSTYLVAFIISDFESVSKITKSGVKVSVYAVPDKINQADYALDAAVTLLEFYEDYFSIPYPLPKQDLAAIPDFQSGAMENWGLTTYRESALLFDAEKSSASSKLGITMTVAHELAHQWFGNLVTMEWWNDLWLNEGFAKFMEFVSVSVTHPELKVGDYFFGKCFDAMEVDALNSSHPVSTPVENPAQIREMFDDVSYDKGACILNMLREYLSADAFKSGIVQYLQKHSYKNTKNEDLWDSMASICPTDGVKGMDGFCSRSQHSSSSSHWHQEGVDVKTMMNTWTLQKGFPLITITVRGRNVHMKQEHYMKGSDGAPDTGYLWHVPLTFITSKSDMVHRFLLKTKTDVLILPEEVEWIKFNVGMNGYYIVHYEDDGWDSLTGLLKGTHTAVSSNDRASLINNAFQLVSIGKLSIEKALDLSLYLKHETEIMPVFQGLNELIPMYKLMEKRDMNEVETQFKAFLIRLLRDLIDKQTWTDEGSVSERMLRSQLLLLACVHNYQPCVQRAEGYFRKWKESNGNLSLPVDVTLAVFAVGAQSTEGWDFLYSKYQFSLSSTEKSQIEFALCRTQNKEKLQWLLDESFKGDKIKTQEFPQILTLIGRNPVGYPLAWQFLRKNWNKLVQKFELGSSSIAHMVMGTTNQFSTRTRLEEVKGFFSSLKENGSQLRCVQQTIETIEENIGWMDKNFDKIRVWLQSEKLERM
Genome polyprotein, sequence (P29990 2492-3391 limits assumed): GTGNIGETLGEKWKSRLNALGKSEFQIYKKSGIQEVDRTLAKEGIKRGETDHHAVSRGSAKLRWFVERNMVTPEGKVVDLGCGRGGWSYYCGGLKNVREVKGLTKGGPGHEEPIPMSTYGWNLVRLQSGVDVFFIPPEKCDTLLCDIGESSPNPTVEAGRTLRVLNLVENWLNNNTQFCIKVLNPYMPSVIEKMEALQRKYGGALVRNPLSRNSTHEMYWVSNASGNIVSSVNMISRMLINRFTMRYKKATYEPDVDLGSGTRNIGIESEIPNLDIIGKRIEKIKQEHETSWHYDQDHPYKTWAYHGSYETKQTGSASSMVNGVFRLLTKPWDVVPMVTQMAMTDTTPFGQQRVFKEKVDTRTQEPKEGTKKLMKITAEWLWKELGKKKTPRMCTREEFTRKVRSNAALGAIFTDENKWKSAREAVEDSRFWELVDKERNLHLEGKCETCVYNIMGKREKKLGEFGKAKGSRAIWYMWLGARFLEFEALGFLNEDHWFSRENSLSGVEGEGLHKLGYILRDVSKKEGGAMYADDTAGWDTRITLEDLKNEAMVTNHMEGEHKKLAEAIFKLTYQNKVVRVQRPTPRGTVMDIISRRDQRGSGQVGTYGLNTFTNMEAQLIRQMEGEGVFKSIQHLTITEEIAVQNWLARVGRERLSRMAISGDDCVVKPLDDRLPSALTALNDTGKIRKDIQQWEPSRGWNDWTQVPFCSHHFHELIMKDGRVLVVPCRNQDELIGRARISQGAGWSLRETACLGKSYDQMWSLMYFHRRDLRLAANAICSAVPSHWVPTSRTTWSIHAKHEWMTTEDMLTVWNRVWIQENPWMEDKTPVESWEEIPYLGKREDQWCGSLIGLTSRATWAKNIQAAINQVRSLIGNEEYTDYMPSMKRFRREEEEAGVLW
Botulinum neurotoxin type F, sequence (P30996 1-436 limits assumed): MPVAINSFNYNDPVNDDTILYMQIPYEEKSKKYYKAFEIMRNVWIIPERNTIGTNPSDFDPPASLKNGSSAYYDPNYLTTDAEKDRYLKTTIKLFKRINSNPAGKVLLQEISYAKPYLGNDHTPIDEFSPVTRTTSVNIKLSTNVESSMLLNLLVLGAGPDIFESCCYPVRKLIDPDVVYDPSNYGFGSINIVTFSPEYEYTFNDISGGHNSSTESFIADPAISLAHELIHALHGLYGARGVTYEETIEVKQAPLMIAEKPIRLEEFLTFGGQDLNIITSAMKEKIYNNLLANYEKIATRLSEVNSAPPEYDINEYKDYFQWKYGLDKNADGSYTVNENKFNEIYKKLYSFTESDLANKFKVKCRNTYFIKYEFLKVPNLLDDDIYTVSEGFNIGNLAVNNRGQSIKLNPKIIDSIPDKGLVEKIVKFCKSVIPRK

## O=S(=O)(Nc1ccc(O)c2ccccc12)c1cccs1
Genome polyprotein
  IC50: 62.6 µM (active)
Hexokinase HKDC1
  IC50: 9.75 µM (active)
[1]
  IC50: > 128 µM (inactive)

## Cc1ccc2c(c1)N(C(=O)CCC(=O)NCCCN1CCOCC1)CC(C)O2 (stereo not drawn)
cells
  AC50: > 52 µM (inactive)

## CN(C)CCCN1c2ccccc2Sc2ccc3ccccc3c21
BHK-21
  AC50: 36 µM (active)
Vero [2]
  CC50: 16.2 µM (active)

## Cc1ccc(C(C)C)c(OCCNC(=O)c2ccccc2O)c1
A549
  AC50: 2.13 µM (active)
Vero [3]
  AC50: 1.45 µM (active)

## CCOC(=O)C[n+]1ccc2c([nH]c3ccccc32)c1C
[4]
  AC50: 11.4 µM (active)
CAAX prenyl protease 2
  AC50: > 100 µM (inactive)

## O=C(Nc1ncccc1O)c1ccc(Oc2ccccc2)cc1
[5]
  AC50: 26 µM (active)

## Cc1cc2cc(CNC(=O)c3ccc(S(=O)(=O)N(C)C)cc3)ccc2n1C
[6]
  IC50: > 66 µM (inactive)
[7]
  IC50: > 66 µM (inactive)
[8]
  EC50: > 20 µM (inactive)
Protein skinhead-1
  IC50: > 100 µM (inactive)

## CC(C)(C)[S@+]([O-])N1Cc2cc(C(=O)NCC(F)(F)F)nc(-c3cccc(-c4cccc(F)c4)c3)c2[C@@H]1CCO
[9]
  AbsAC35: 124.56 µM
[10]
  AC50: 6.29 µM (active)
[11]
  AbsAC35: 111.16 µM
